Biological target: recombinant DYRK1A kinase (Homo sapiens (Human), UniProt Q13627)
Experiment: DYRK1A kinase assay (Ser/Thr 18 peptide Z-lyte FRET)
Assay type: biochemical
Conditions: DYRK1A kinase activity, Z-lyte Ser/Thr 18 peptide, 15 μM ATP; method text calls the value IC50; read-out: EC50 (the source's name)
Summary of the method: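 Z-lyte FRET read-out: coumarin (Em 455) over fluorescein (Em 520) emission ratio, converted to percent phosphorylation after 1 h development. Reaction: 0.25 μg/mL kinase, 15 μM ATP, 4 μM peptide, 1 h RT with compound, duplicate wells. IC50s fitted by non-linear regression.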

SMILES	IC50
CC(=O)N1C[C@H](F)[C@H](Nc2nc(O)c3c(-c4cnc5nccn5c4)ccn3n2)C1 [Compound 263, 1-((3S,4R)-3-Fluoro-4-((4-hydroxy-5-(imidazo[1,2-a]pyrimidin-6-yl)pyrrolo[2,1-f][1,2,4]triazin-2-yl)amino)pyrrolidin-1-yl)ethan-1-one]	112 nM
COc1nc(N[C@@H]2CN(C(C)=O)C[C@@H]2F)nn2ccc(-c3cnc4nccn4c3)c12 [Compound 264, 1-((3S,4R)-3-Fluoro-4-((5-(imidazo[1,2-a]pyrimidin-6-yl)-4-methoxypyrrolo[2,1-f][1,2,4]triazin-2-yl)amino)pyrrolidin-1-yl)ethan-1-one]	3.5 nM
Oc1nc(N[C@@H]2CN(C3COC3)C[C@@H]2F)nn2ccc(-c3cnc4nccn4c3)c12 [Compound 265, 2-(((3R,4S)-4-fluoro-1-(oxetan-3-yl)pyrrolidin-3-yl)amino)-5-(imidazo[1,2-a]pyrimidin-6-yl)pyrrolo[2,1-f][1,2,4]triazin-4-ol]	58.9 nM
COc1nc(N[C@@H]2CN(C3COC3)C[C@@H]2F)nn2ccc(-c3cnc4nccn4c3)c12 [Compound 266, N-((3R,4S)-4-Fluoro-1-(oxetan-3-yl)pyrrolidin-3-yl)-5-(imidazo[1,2-a]pyrimidin-6-yl)-4-methoxypyrrolo[2,1-f][1,2,4]triazin-2-amine]	2.9 nM
COc1nc(N[C@@H]2CCN(C)C[C@@H]2F)nn2ccc(-c3cnc4nccn4c3)c12 [Compound 267, N-((3S,4R)-3-Fluoro-1-methylpiperidin-4-yl)-5-(imidazo[1,2-a]pyrimidin-6-yl)-4-methoxypyrrolo[2,1-f][1,2,4]triazin-2-amine]	4.8 nM
COc1nc(N[C@H]2CCN(C)C[C@H]2F)nn2ccc(-c3cnc4nccn4c3)c12 [Compound 268, N-((3R,4S)-3-Fluoro-1-methylpiperidin-4-yl)-5-(imidazo[1,2-a]pyrimidin-6-yl)-4-methoxypyrrolo[2,1-f][1,2,4]triazin-2-amine]	5 nM
COc1nc(N[C@@H]2CCN(C3COC3)C[C@@H]2F)nn2ccc(-c3cnc4nccn4c3)c12 [Compound 269, N-((3S,4R)-3-Fluoro-1-(oxetan-3-yl)piperidin-4-yl)-5-(imidazo[1,2-a]pyrimidin-6-yl)-4-methoxypyrrolo[2,1-f][1,2,4]triazin-2-amine]	2.3 nM
COc1nc(N[C@H]2CCN(C3COC3)C[C@H]2F)nn2ccc(-c3cnc4nccn4c3)c12 [Compound 270, N-((3R,4S)-3-Fluoro-1-(oxetan-3-yl)piperidin-4-yl)-5-(imidazo[1,2-a]pyrimidin-6-yl)-4-methoxypyrrolo[2,1-f][1,2,4]triazin-2-amine]	5.1 nM
COc1nc(NC2CCOCC2)nn2ccc(-c3cnc4nccn4c3)c12 [Compound 271, 5-(Imidazo[1,2-a]pyrimidin-6-yl)-4-methoxy-N-(tetrahydro-2H-pyran-4-yl)pyrrolo[2,1-f][1,2,4]triazin-2-amine]	3.8 nM
COc1nc(NC2CCC3(CC2)CN(C(C)=O)C3)nn2ccc(-c3cnc4nccn4c3)c12 [Compound 273, 1-(7-((5-(Imidazo[1,2-a]pyrimidin-6-yl)-4-methoxypyrrolo[2,1-f][1,2,4]triazin-2-yl)amino)-2-azaspiro[3.5]nonan-2-yl)ethan-1-one]	1.8 nM
COc1nc(N[C@H]2CC[C@]3(CCO3)CC2)nn2ccc(-c3cnc4nccn4c3)c12 [Compound 274, 5-(Imidazo[1,2-a]pyrimidin-6-yl)-4-methoxy-N-((4s,7s)-1-oxaspiro[3.5]nonan-7-yl)pyrrolo[2,1-f][1,2,4]triazin-2-amine]	1 nM
COc1nc(N[C@H]2CC[C@@]3(CCO3)CC2)nn2ccc(-c3cnc4nccn4c3)c12 [Compound 275, 5-(Imidazo[1,2-a]pyrimidin-6-yl)-4-methoxy-N-((4r,7r)-1-oxaspiro[3.5]nonan-7-yl)pyrrolo[2,1-f][1,2,4]triazin-2-amine]	3.4 nM
COc1nc(N[C@H]2CCN(CCF)C[C@H]2F)nn2ccc(-c3ccc4ncccc4c3)c12 [Compound 314, N-((3R,4S)-3-Fluoro-1-(2-fluoroethyl)piperidin-4-yl)-4-methoxy-5-(quinolin-6-yl)pyrrolo[2,1-f][1,2,4]triazin-2-amine]	4.1 nM
COc1nc(N[C@@H]2CCN(C3COC3)CC2(F)F)nn2ccc(-c3ccc4ncccc4c3)c12 [Compound 321, (R)—N-(3,3-Difluoro-1-(oxetan-3-yl)piperidin-4-yl)-4-methoxy-5-(quinolin-6-yl)pyrrolo[2,1-f][1,2,4]triazin-2-amine]	2.1 nM
COc1nc(N[C@H]2CCN(C3COC3)CC2(F)F)nn2ccc(-c3ccc4ncccc4c3)c12 [Compound 322, (S)—N-(3,3-Difluoro-1-(oxetan-3-yl)piperidin-4-yl)-4-methoxy-5-(quinolin-6-yl)pyrrolo[2,1-f][1,2,4]triazin-2-amine]	6.6 nM
COc1nc(N[C@H]2C[C@@H](OCCO)C2)nn2ccc(-c3ccc4nccnc4c3)c12 [Compound 329, 2-(cis-3-((4-Methoxy-5-(quinoxalin-6-yl)pyrrolo[2,1-f][1,2,4]triazin-2-yl)amino)cyclobutoxy)ethan-1-ol]	1.9 nM

The remaining lines, values ahead:

IC50	SMILES
63.3 nM	COc1nc(N[C@H]2C[C@@](C)(O)C2)nn2ccc(-c3cc4ncccc4[nH]3)c12 [Compound 277, cis-3-((4-Methoxy-5-(1H-pyrrolo[3,2-b]pyridin-2-yl)pyrrolo[2,1-f][1,2,4]triazin-2-yl)amino)-1-methylcyclobutan-1-ol]
33.4 nM	COc1nc(N[C@H]2CC[C@](C)(O)CC2)nn2ccc(-c3cc4ncccc4[nH]3)c12 [Compound 280, trans-4-((4-Methoxy-5-(1H-pyrrolo[3,2-b]pyridin-2-yl)pyrrolo[2,1-f][1,2,4]triazin-2-yl)amino)-1-methylcyclohexan-1-ol]
6.6 nM	COc1nc(N[C@H]2C[C@@](C)(O)C2)nn2ccc(-c3cc4cnccc4[nH]3)c12 [Compound 281, cis-3-((4-Methoxy-5-(1H-pyrrolo[3,2-c]pyridin-2-yl)pyrrolo[2,1-f][1,2,4]triazin-2-yl)amino)-1-methylcyclobutan-1-ol]
13.6 nM	COc1nc(N[C@H]2CC[C@](C)(O)CC2)nn2ccc(-c3cc4cnccc4[nH]3)c12 [Compound 282, trans-4-((4-Methoxy-5-(1H-pyrrolo[3,2-c]pyridin-2-yl)pyrrolo[2,1-f][1,2,4]triazin-2-yl)amino)-1-methylcyclohexan-1-ol]
110 nM	COc1nc(N[C@H]2C[C@@](C)(O)C2)nn2ccc(-c3cc4ccncc4[nH]3)c12 [Compound 283, cis-3-((4-Methoxy-5-(1H-pyrrolo[2,3-c]pyridin-2-yl)pyrrolo[2,1-f][1,2,4]triazin-2-yl)amino)-1-methylcyclobutan-1-ol]
235 nM	COc1nc(N[C@H]2CC[C@](C)(O)CC2)nn2ccc(-c3cc4ccncc4[nH]3)c12 [Compound 284, trans-4-((4-Methoxy-5-(1H-pyrrolo[2,3-c]pyridin-2-yl)pyrrolo[2,1-f][1,2,4]triazin-2-yl)amino)-1-methylcyclohexan-1-ol]
2.2 nM	COc1nc(N[C@H]2C[C@H](C(C)(C)O)C2)nn2ccc(-c3ccc4ncccc4c3)c12 [Compound 287, 2-(trans-3-((4-methoxy-5-(quinolin-6-yl)pyrrolo[2,1-f][1,2,4]triazin-2-yl)amino)cyclobutyl)propan-2-ol]
2.6 nM	COc1nc(N[C@H]2C[C@@](C)(NC(C)=O)C2)nn2ccc(-c3ccc4ncccc4c3)c12 [Compound 288, N-(cis-3-((4-Methoxy-5-(quinolin-6-yl)pyrrolo[2,1-f][1,2,4]triazin-2-yl)amino)-1-methylcyclobutyl)acetamide]
1.8 nM	COc1nc(N[C@H]2C[C@](C)(C(=O)N(C)C)C2)nn2ccc(-c3ccc4ncccc4c3)c12 [Compound 290, trans-3-((4-Methoxy-5-(quinolin-6-yl)pyrrolo[2,1-f][1,2,4]triazin-2-yl)amino)-N,N,1-trimethylcyclobutane-1-carboxamide]
14.3 nM	COc1nc(NC2CCN(CC(F)F)CC2)nn2ccc(-c3ccc4ncccc4c3)c12 [Compound 304, N-(1-(2,2-Difluoroethyl)piperidin-4-yl)-4-methoxy-5-(quinolin-6-yl)pyrrolo[2,1-f][1,2,4]triazin-2-amine]
80.7 nM	COc1nc(NC2CCN(CC(F)(F)F)CC2)nn2ccc(-c3ccc4ncccc4c3)c12 [Compound 305, 4-Methoxy-5-(quinolin-6-yl)-N-(1-(2,2,2-trifluoroethyl)piperidin-4-yl)pyrrolo[2,1-f][1,2,4]triazin-2-amine]
28.2 nM	COc1nc(NC2CCN(C3CC(F)(F)C3)CC2)nn2ccc(-c3ccc4ncccc4c3)c12 [Compound 306, N-(1-(3,3-Difluorocyclobutyl)piperidin-4-yl)-4-methoxy-5-(quinolin-6-yl)pyrrolo[2,1-f][1,2,4]triazin-2-amine]
2.2 nM	COc1nc(N[C@@H]2CCN(C)CC2(F)F)nn2ccc(-c3ccc4ncccc4c3)c12 [Compound 319, (R)—N-(3,3-Difluoro-1-methylpiperidin-4-yl)-4-methoxy-5-(quinolin-6-yl)pyrrolo[2,1-f][1,2,4]triazin-2-amine]
8.2 nM	COc1nc(N[C@H]2CCN(C)CC2(F)F)nn2ccc(-c3ccc4ncccc4c3)c12 [Compound 320, (S)—N-(3,3-Difluoro-1-methylpiperidin-4-yl)-4-methoxy-5-(quinolin-6-yl)pyrrolo[2,1-f][1,2,4]triazin-2-amine]
7.3 nM	COc1nc(NC2CCC3(CC2)COC3)nn2ccc(-c3ccc4ncccc4c3)c12 [Compound 326, 4-Methoxy-5-(quinolin-6-yl)-N-(2-oxaspiro[3.5]nonan-7-yl)pyrrolo[2,1-f][1,2,4]triazin-2-amine]
5.4 nM	COc1nc(N[C@H]2C[C@H](C(C)(C)O)C2)nn2ccc(-c3ccc4nccnc4c3)c12 [Compound 328, 2-(trans-3-((4-Methoxy-5-(quinoxalin-6-yl)pyrrolo[2,1-f][1,2,4]triazin-2-yl)amino)cyclobutyl)propan-2-ol]

Reference: US20240002391A1, “4-ALKOXYPYRROLO[2,1-F][1,2,4]TRIAZINES AND PREPARATION AND USES THEREOF” (BioSplice Therapeutics, Inc., priority 2022, published 2024)
